Measurements: US11420944B2, “Voltage-dependent t-type calcium channel blocker” (Nippon Chemiphar Co., Ltd., priority 2016, dated 2022)
pIC50: −log10 of the molar value. Where two headings read alike, the source gives them in different places.

How the values were obtained:
[1] = biological target: T1, CYP3A4 (Homo sapiens, UniProt P08684); assay: Evaluation of CYP3A4 activity inhibitory action; assay type: in vitro ADME; details: Human CYP3A4BR EasyCYP Bactosomes, 7-Benzyloxy-4-(trifluoromethyl)-coumarin
T1 construct: purchased Cypex, Ltd; host or cells: E. coli membranes (Bactosomes)
Protocol: Evaluation of CYP3A4 Activity Inhibitory Action
To a 50 mM potassium phosphate buffer solution (pH 7.4), 5 nM Human CYP3A4BR EasyCYP Bactosomes (Cypex, Ltd.), 50 μM 7-Benzyloxy-4-(trifluoromethyl)-coumarin, cofactor mix (0.0081 mM β-NADP^+, 0.4 mM G-6-P, 0.4 mM MgCl2, and 0.2 U/mL G-6-P DH(Y)), and 0.01% Pluronic F-127 were added, and the mixture was incubated for 45 minutes at 37° C. The reaction was initiated by adding the cofactor mix. After the incubation, 0.5 M Tris base/acetonitrile (20:80) was added thereto as a reaction terminating liquid, and the resulting mixture was stirred. Subsequently, the fluorescence intensity (excitation: 405 nm, emission: 535 nm) was measured. The reaction was carried out in duplicate. The results are presented as the inhibition rate at 10 μM of the test compound.

[2] = biological target: T2, human Cav3.2 channels (Homo sapiens, UniProt O95180); assay: Electrophysiological evaluation, whole-cell patch-clamp with automatic patch-clamp system; assay type: cell-based; details: 0.3 μM, holding potential −80 mV; read-out: Cav3.2 channel current inhibition ratio at 0.3 μM of test compound (holding potential −80 mV)
T2 construct: expressed in transfected cells; host or cells: HEK293 cells (ATCC No. CRL-1573), plasmid pcDNA3.1(+)
Protocol: Electrophysiological Evaluation
Stable cell line expressing human Cav3.2 channels, which had been produced by Test method (1) of Example 140, was seeded in a 10-cm dish using DMEM medium containing 10% FBS, and the cells were cultured for 24 hours or longer under the conditions of 37° C. and 5% CO2. The cells were detached using Accutase and were used after being suspended in ice-cold extracellular solution. The Cav3.2 channel current was measured by the Whole-cell patch-clamp method using an automatic patch-clamp system (Port-a-Patch; Nanion Technologies GmbH, EPC-10; HEKA Elektronik GmbH, Patchmaster; HEKA Elektronik GmbH) and buffers described below. Measurement of the Cav3.2 channel current was carried out at room temperature, and the measurement conditions were set as follows: holding potential: −80 mV, depolarization potential: −20 mV, depolarization time: 100 msec, and depolarization frequency: 10 sec. The Cav3.2 channel current was defined as the peak value of the inward current observed when depolarization occurred at −20 mV.
For a test compound, a DMSO solution was diluted 1,000 times with extracellular solution, and thus a solution having an intended concentration was produced. The test compound was applied using an extracellular perfusion system (Nanion Technologies GmbH) until the Cav3.2 channel current was stabilized, and five concentrations at the maximum from the low-concentration side were cumulatively applied. The inhibition ratio of the test compound was calculated from the current value immediately before the application of the test compound and the change rate of the Cav3.2 channel current after the application of the test compound (conditions for a holding potential of −80 mV: test compound concentration of 0.3 μM, conditions for a holding potential of −100 mV: test compound concentration of 3 μM).
Extracellular solution: 135 mM NaCl, 4 mM KCl, 1 mM MgCl2, 5 mM CaCl2, 5 mM D-Glucose, and 10 mM HEPES, pH 7.4
Internal solution for electrode: 10 mM NaCl, 10 mM HEPES, 50 mM CsCl, 60 mM CsF, and 20 mM EGTA, pH 7.2

[3] = biological target: T2, human Cav3.2 channels; assay: Intracellular calcium concentration measurement (Fluo-4 AM) in stable cells expressing human Cav3.2 channels, buffer A / buffer B; assay type: cell-based
In short: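 HEK293 cells stably expressing human Cav3.2, Fluo-4 loaded, preincubated 15 min at room temperature with compound (0.1% DMSO final) in buffer A (K+ equilibrium −92 mV) or B (−110 mV). After ionophore, KCl (83.8 or 91.8 mM) stimulus; 10 s fluorescence rise (ex 485/em 510 nm) gave % inhibition and IC50.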

[4] = Table 1, buffer A, equilibrium potential of potassium −92 mV, read-out: Inhibitory action of buffer A (inactivated state)
[5] = Table 1, buffer B, equilibrium potential of potassium −110 mV, read-out: Inhibitory action of buffer B (resting state or closed state)
[6] = Tables 2 to 6, buffer A, equilibrium potential of potassium −92 mV, read-out: Inhibitory action of buffer A (inactivated state)

T1 sequence (P08684 whole entry): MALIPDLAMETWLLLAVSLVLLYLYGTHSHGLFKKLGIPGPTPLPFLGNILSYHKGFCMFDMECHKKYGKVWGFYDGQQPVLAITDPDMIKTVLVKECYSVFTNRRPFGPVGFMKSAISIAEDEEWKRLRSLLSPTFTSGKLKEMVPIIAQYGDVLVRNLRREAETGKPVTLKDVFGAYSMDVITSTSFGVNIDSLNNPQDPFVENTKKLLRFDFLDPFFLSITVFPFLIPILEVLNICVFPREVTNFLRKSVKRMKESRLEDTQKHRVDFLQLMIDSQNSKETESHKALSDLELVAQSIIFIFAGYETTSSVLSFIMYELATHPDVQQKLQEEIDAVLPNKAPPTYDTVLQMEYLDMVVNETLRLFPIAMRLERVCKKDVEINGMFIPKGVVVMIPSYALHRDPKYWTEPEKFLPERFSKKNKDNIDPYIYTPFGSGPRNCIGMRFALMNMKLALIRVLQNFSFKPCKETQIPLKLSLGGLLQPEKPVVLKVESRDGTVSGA
T2 sequence (O95180 whole entry): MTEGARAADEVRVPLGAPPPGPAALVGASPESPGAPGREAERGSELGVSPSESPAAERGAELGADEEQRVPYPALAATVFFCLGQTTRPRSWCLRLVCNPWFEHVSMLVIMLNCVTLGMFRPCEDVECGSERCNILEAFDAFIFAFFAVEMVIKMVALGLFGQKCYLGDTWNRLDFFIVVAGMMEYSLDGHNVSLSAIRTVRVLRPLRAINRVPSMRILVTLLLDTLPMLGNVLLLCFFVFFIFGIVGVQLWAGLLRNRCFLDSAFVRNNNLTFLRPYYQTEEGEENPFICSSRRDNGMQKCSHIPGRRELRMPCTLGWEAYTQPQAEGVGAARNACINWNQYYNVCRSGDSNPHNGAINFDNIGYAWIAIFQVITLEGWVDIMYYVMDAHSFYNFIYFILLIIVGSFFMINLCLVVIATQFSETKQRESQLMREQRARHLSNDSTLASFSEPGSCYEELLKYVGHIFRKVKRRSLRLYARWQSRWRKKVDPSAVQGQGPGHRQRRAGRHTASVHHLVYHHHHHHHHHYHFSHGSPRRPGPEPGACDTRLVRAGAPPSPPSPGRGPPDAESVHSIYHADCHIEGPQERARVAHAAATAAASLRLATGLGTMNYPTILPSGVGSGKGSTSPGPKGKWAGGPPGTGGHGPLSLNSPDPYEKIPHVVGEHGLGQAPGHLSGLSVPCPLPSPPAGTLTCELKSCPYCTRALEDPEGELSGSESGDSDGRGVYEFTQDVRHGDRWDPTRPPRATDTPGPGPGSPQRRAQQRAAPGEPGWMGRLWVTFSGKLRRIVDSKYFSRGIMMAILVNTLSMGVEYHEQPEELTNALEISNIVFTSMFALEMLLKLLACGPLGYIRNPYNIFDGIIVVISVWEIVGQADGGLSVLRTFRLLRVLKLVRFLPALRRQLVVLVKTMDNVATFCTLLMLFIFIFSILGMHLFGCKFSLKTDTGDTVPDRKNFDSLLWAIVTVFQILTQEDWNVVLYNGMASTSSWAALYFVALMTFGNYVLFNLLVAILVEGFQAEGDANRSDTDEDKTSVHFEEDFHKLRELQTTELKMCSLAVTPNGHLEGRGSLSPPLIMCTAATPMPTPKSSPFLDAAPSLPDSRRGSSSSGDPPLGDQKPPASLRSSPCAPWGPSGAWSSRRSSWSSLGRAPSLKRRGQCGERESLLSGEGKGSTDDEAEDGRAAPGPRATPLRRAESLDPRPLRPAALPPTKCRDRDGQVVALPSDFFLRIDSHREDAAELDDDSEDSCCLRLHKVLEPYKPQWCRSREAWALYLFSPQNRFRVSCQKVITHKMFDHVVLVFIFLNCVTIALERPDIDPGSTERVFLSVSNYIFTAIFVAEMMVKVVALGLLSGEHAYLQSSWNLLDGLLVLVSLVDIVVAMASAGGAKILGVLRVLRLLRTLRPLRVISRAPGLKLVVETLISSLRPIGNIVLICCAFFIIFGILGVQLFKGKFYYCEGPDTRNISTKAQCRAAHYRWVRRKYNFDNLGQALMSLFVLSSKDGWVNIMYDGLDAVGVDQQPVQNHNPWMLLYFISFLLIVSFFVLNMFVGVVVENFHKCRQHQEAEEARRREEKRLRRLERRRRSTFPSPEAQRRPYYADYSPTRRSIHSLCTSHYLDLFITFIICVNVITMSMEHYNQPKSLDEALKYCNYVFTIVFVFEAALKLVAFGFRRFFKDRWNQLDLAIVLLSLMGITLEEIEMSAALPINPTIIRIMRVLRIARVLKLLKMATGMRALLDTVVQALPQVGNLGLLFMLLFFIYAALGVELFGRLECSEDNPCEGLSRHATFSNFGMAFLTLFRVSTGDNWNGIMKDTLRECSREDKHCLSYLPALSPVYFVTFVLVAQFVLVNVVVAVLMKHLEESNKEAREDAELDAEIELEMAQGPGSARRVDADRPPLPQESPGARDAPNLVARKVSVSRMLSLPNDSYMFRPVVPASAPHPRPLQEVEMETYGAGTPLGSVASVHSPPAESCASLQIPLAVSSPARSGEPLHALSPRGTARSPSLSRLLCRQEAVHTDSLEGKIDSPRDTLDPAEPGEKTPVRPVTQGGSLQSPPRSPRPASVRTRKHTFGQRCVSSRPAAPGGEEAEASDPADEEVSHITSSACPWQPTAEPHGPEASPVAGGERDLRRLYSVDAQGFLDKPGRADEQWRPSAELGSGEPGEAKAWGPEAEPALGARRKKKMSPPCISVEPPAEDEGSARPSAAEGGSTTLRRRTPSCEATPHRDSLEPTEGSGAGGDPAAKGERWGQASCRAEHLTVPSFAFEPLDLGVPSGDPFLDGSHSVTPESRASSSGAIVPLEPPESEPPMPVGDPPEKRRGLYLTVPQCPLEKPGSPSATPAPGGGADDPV

Compound	CYP3A4 activity inhibition ratio at 10 μM of test compound [1] [%]	inhibition at 0.3 µM [2] [%]	pIC50 [3, 4]	pIC50 [3, 5]	pIC50 [3, 6]
C[C@@H](NC(=O)C1CC1c1nc2ccccc2n1C)c1ccc(OCC(F)(F)F)s1 (single isomer, unassigned) [Example 4A]	39.6	58	≥ 7.00	< 5.00	
C[C@@H](NC(=O)C1CC1c1ccc2cnn(C)c2c1)c1ccc(OCC(F)(F)F)s1 (single isomer, unassigned) [Example 22A]	12.2	81			6.00 to 7.00
C[C@@H](NC(=O)C1CC1c1nc2cc(Cl)ccc2[nH]1)c1cnc(OCC(F)(F)F)s1 (single isomer, unassigned) [Example 64A]	4.4	52			≥ 7.00
C[C@@H](NC(=O)C1CC1c1nc2ccccc2[nH]1)c1ccc(C(=O)N2CCCCC2)s1 (stereo in doubt) [Example 61, Trans-2-(1H-benzo[d]imidazol-2-yl)-N—((R)-1-(5-(piperidine-1-carbonyl)thiophen-2-yl)ethyl)cyclopropane-1-carboxamide]	4.5	53			6.00 to 7.00
C[C@@H](NC(=O)[C@@H]1CCN(c2nc3ccccc3[nH]2)C1)c1ccc(OCC(F)(F)F)s1 [Example 12]	84.4		6.00 to 7.00	5.00 to 6.00	
C[C@@H](NC(=O)[C@@H]1CCN(CC(=O)NC(C)(C)C)C1)c1ccc(OCC(F)(F)F)s1.Cl [Example 15, (R)-1-(2-(tert-butylamino)-2-oxoethyl)-N—((R)-1-(5-(2,2,2-trifluoroethoxy)thiophen-2-yl)ethyl)pyrrolidine-3-carboxamide hydrochloride]	21.9	33	6.00 to 7.00	5.00 to 6.00	
CC(C(=O)Nc1ccccc1)N1CC[C@@H](C(=O)N[C@H](C)c2ccc(OCC(F)(F)F)s2)C1 (stereo partly drawn) [Example 24, (3R)-1-(1-oxo-1-(phenylamino)propan-2-yl)-N—((R)-1-(5-(2,2,2-trifluoroethoxy)thiophen-2-yl)ethyl)pyrrolidine-3-carboxamide]	51.1				6.00 to 7.00
C[C@@H](NC(=O)[C@H]1C[C@@H]1c1nc2ccccc2[nH]1)c1ccc(C(=O)N2CCCC2)s1 [Example 33, Trans-2-(1H-benzo[d]imidazol-2-yl)-N—((R)-1-(5-(pyrrolidine-1-carbonyl)thiophen-2-yl)ethyl)cyclopropane-1-carboxamide]	−12.8				6.00 to 7.00
C[C@@H](NC(=O)[C@@H]1CCN(CC(=O)NC23CC4CC(CC(C4)C2)C3)C1)c1ccc(OCC(F)(F)F)s1 [Example 36, (R)-1-(2-(adamantan-1-ylamino)-2-oxoethyl)-N—((R)-1-(5-(2,2,2-trifluoroethoxy)thiophen-2-yl)ethyl)pyrrolidine-3-carboxamide]	81.0	94			≥ 7.00
C[C@@H](NC(=O)[C@@H]1CCN(CC(=O)Nc2cc(Cl)cc(Cl)c2)C1)c1ccc(OCC(F)(F)F)s1 [Example 42, (R)-1-(2-((3,5-dichlorophenyl)amino)-2-oxoethyl)-N—((R)-1-(5-(2,2,2-trifluoroethoxy)thiophen-2-yl)ethyl)pyrrolidine-3-carboxamide]	77.9	87			≥ 7.00
C[C@@H](NC(=O)[C@@H]1CCN(CC(=O)C(C)(C)C)C1)c1ccc(OCC(F)(F)F)s1 [Example 43, (R)-1-(3,3-dimethyl-2-oxobutyl)-N—((R)-1-(5-(2,2,2-trifluoroethoxy)thiophen-2-yl)ethyl)pyrrolidine-3-carboxamide]	23.6	32			6.00 to 7.00

Next, values leading:

CYP3A4 activity inhibition ratio at 10 μM of test compound [1] [%]	inhibition at 0.3 µM [2] [%]	pIC50 [3, 4]	pIC50 [3, 5]	pIC50 [3, 6]	Compound
13.0	59	6.00 to 7.00	6.00 to 7.00		C[C@@H](NC(=O)C1CC1c1nc2ccccc2[nH]1)c1ccc(C(F)(F)F)s1 (single isomer, unassigned) [Example 5A]
11.3	19			6.00 to 7.00	C[C@@H](NC(=O)C1CC1c1nc2ccccc2[nH]1)c1ccc(C(=O)O)s1 (single isomer, unassigned) [Example 26]
53.5				6.00 to 7.00	C[C@@H](NC(=O)[C@H]1C[C@@H]1c1nc2ccccc2[nH]1)c1ccc2cc[nH]c2c1 [Example 58, (1S,2S)—N—((R)-1-(1H-indol-6-yl)ethyl)-2-(1H-benzo[d]imidazol-2-yl)cyclopropane-1-carboxamide]
−1.2	48			6.00 to 7.00	C[C@@H](NC(=O)[C@H]1C[C@@H]1c1nc2ccccc2[nH]1)c1ccc(C(=O)N2CCC(F)(F)C2)s1 [Example 60, Trans-2-(1H-benzo[d]imidazol-2-yl)-N—((R)-1-(5-(3,3-difluoropyrrolidine-1-carbonyl)thiophen-2-yl)ethyl)cyclopropane-1-carboxamide]
24.1				6.00 to 7.00	C[C@@H](NC(=O)[C@H]1C[C@@H]1c1nc2ccccc2[nH]1)c1cc2cc(C(F)(F)F)ccc2o1 [Example 109, (1S,2S)-2-(1H-benzo[d]imidazol-2-yl)-N—((R)-1-(5-(trifluoromethyl)benzofuran-2-yl)ethyl)cyclopropane-1-carboxamide]
11.7				≥ 7.00	C[C@@H](NC(=O)[C@H]1C[C@@H]1c1nc2ccccc2[nH]1)c1cc2ccc(C(F)(F)F)cc2o1 [Example 123, (1S,2S)-2-(1H-benzo[d]imidazol-2-yl)-N—((R)-1-(6-(trifluoromethyl)benzofuran-2-yl)ethyl)cyclopropane-1-carboxamide]
28.6				≥ 7.00	CC(C)[C@@H](NC(=O)[C@H]1C[C@@H]1c1nc2ccccc2[nH]1)c1cc2ccc(F)cc2o1 [Example 124, (1S,2S)-2-(1H-benzo[d]imidazol-2-yl)-N—((R)-1-(6-fluorobenzofuran-2-yl)-2-methylpropyl)cyclopropane-1-carboxamide]
25.0				≥ 7.00	C[C@@H](NC(=O)[C@H]1C[C@@H]1c1nc2cc(F)ccc2[nH]1)c1cc2cc(F)ccc2o1 [Example 125, (1S,2S)-2-(5-fluoro-1H-benzo[d]imidazol-2-yl)-N—((R)-1-(5-fluorobenzofuran-2-yl)ethyl)cyclopropane-1-carboxamide]
56.0				6.00 to 7.00	C[C@H](c1cc2ccc(F)cc2o1)N(C)C(=O)[C@H]1C[C@@H]1c1nc2ccccc2[nH]1 [Example 129, (1S,2S)-2-(1H-benzo[d]imidazol-2-yl)-N—((R)-1-(6-fluorobenzofuran-2-yl)ethyl)-N-methylcyclopropane-1-carboxamide]
